Reference: patent publication US6677347B2, “Sulfonamido ether substituted imidazoquinolines” (3M Innovative Properties Company, priority 2000, dated 2004)

Columns and labels:
interferon (α) = assay: Cytokine Induction in Human Cells: interferon (α) by ELISA; assay type: cell-based; parameters: key to Lowest Effective Concentration (μM) Interferon: *: no induction was seen at any of the tested concentrations; generally the highest concentration tested was 10 or 30 μM; details: human PBMC, 18 to 24 hours incubation, lowest concentration found to induce interferon
From the text: (§1) An in vitro human blood cell system is used to assess cytokine induction. Activity is based on the measurement of interferon and tumor necrosis factor (α) (IFN and TNF, respectively) secreted into culture media as described by Testerman et. al. In “Cytokine Induction by the Immunomodulators Imiquimod and S-27609”, Journal of Leukocyte Biology, 58, 365-372 (September, 1995).
(§2) Whole blood from healthy human donors is collected by venipuncture into EDTA vacutainer tubes. Peripheral blood mononuclear cells (PBMC) are separated from whole blood by density gradient centrifugation using Histopaque®-1077. Blood is diluted 1:1 with Dulbecco's Phosphate Buffered Saline (DPBS) or Hank's Balanced Salts Solution (HBSS). The PBMC layer is collected and washed twice with DPBS or HBSS and resuspended at 4×10^6 cells/mL in RPMI complete. The PBMC suspension is added to 48 well flat bottom sterile tissue culture plates (Costar, Cambridge, Mass. or Becton Dickinson Labware, Lincoln Park, N.J.) containing an equal volume of RPMI complete media containing test compound.
(§3) The compounds are solubilized in dimethyl sulfoxide (DMSO). The DMSO concentration should not exceed a final concentration of 1% for addition to the culture wells. The compounds are generally tested at concentrations ranging from 30-0.014 μM.
(§4) The solution of test compound is added at 60 μM to the first well containing RPMI complete and serial 3 fold dilutions are made in the wells. The PBMC suspension is then added to the wells in an equal volume, bringing the test compound concentrations to the desired range (30-0.014 μM). The final concentration of PBMC suspension is 2×10^6 cells/mL. The plates are covered with sterile plastic lids, mixed gently and then incubated for 18 to 24 hours at 37° C. in a 5% carbon dioxide atmosphere.
(§5) Following incubation the plates are centrifuged for 10 minutes at 1000 rpm (˜200×g) at 4° C. The cell-free culture supernatant is removed with a sterile polypropylene pipet and transferred to sterile polypropylene tubes. Samples are maintained at −30 to −70° C. until analysis. The samples are analyzed for interferon (α) by ELISA and for tumor necrosis factor (α) by ELISA or IGEN Assay
Interferon (α) concentration is determined by ELISA using a Human Multi-Species kit from PBL Biomedical Laboratories, New Brunswick, N.J. Results are expressed in pg/mL.
(§6) The table below lists the lowest concentration found to induce interferon and the lowest concentration found to induce tumor necrosis factor for each compound.

[1] = test system: tumor necrosis factor (α); assay: Cytokine Induction in Human Cells: tumor necrosis factor (α) by ELISA or IGEN assay; assay type: cell-based; parameters: key to Lowest Effective Concentration (μM) Tumor Necrosis Factor: *: no induction was seen at any of the tested concentrations; generally the highest concentration tested was 10 or 30 μM; details: human PBMC, 18 to 24 hours incubation, lowest concentration found to induce tumor necrosis factor
From the text: as §1, §2, §3, §4, §5
Tumor necrosis factor (α) (TNF) concentration is determined using ELISA kits available from Biosource International, Camarillo, Calif. Alternately, the TNF concentration can be determined by Origen® M-Series Immunoassay and read on an IGEN M-8 analyzer from IGEN International, Gaithersburg, Md. The immunoassay uses a human TNF capture and detection antibody pair from Biosource International, Camarillo, Calif. Results are expressed in pg/mL.
as §6

Row | SMILES | minimal effective concentration (interferon (α)) | minimal effective concentration [1] | Lowest Effective Concentration (μM) Interferon (interferon (α)) | Lowest Effective Concentration (μM) Tumor Necrosis Factor [1]
1 | CCCCc1nc2c(N)nc3ccccc3c2n1CCOCCNS(=O)(=O)c1ccc(C#N)cc1 [Example 14] | 1 µM | 10 µM | – | –
2 | CCCCc1nc2c(N)nc3ccccc3c2n1CCOCCNS(=O)(=O)c1ccc(OC)cc1 [Example 16] | 1 µM | 10 µM | – | –
3 | COc1ccc(S(=O)(=O)NCCOCCn2cnc3c(N)nc4ccccc4c32)cc1 [Example 43] | 10 µM | 10 µM | – | –
4 | CCCCc1nc2c(N)nc3ccccc3c2n1CCOCCNS(=O)(=O)C[C@@]12CC[C@@H](CC1=O)C2(C)C [Example 26] | 0.01 µM | 10 µM | – | –
5 | Nc1nc2ccccc2c2c1ncn2CCOCCNS(=O)(=O)c1ccc(C(F)(F)F)cc1 [Example 46] | – | – | * | *
6 | CCCCc1nc2c(N)nc3ccccc3c2n1CCOCCNS(=O)(=O)N(C)C [Example 8] | 0.01 µM | 1 µM | – | –
7 | CCCCc1nc2c(N)nc3ccccc3c2n1CCOCCNS(=O)(=O)c1ccc(S(C)(=O)=O)cc1 [Example 23] | 0.0001 µM | 10 µM | – | –
8 | CCC(COCCC1CCN(S(=O)(=O)c2ccc(/N=N/c3ccc(N(C)C)cc3)cc2)CC1)n1cnc2c(N)nc3ccccc3c21 (centres unmarked) [Example 39] | 1 µM | – | – | *
9 | CCC(COCCC1CCN(S(=O)(=O)c2ccc(F)cc2F)CC1)n1cnc2c(N)nc3ccccc3c21 (centres unmarked) [Example 35] | 1 µM | 1 µM | – | –
10 | CCCCc1nc2c(N)nc3ccccc3c2n1CCOCCNS(=O)(=O)c1ccc2ccccc2c1 [Example 19] | – | 10 µM | * | –
11 | CCCCc1nc2c(N)nc3ccccc3c2n1CCOCCNS(=O)(=O)c1cccs1 [Example 11] | 1 µM | 10 µM | – | –
12 | CCCCc1nc2c(N)nc3ccccc3c2n1CCOCCNS(=O)(=O)c1cccc(F)c1 [Example 13] | 1 µM | 10 µM | – | –
13 | CCCCc1nc2c(N)nc3ccccc3c2n1CCOCCNS(=O)(=O)c1ccc(/N=N/c2ccc(N(C)C)cc2)cc1 [Example 25] | 0.0001 µM | – | – | *
14 | CCCCS(=O)(=O)N1CCC(CCOCC(CC)n2cnc3c(N)nc4ccccc4c32)CC1 (centres unmarked) [Example 29] | 1 µM | 10 µM | – | –
15 | CCCCc1nc2c(N)nc3ccccc3c2n1CCOCCNS(=O)(=O)c1cccc2ccccc12 [Example 18] | – | 10 µM | * | –
16 | CCCCc1nc2c(N)nc3ccccc3c2n1CCOCCNS(=O)(=O)Cc1ccccc1 [Example 12] | 0.1 µM | 10 µM | – | –
17 | CCC(COCCC1CCN(S(=O)(=O)c2cccc3cccnc23)CC1)n1cnc2c(N)nc3ccccc3c21 (centres unmarked) [Example 36] | 1 µM | 10 µM | – | –
18 | CCC(COCCC1CCN(S(=O)(=O)c2ccccc2)CC1)n1cnc2c(N)nc3ccccc3c21 (centres unmarked) [Example 30] | 1 µM | 10 µM | – | –
19 | CS(=O)(=O)c1ccc(S(=O)(=O)NCCOCCn2cnc3c(N)nc4ccccc4c32)cc1 [Example 48] | – | 10 µM | * | –
20 | CCCCc1nc2c(N)nc3ccccc3c2n1CCOCCNS(=O)(=O)C(C)C [Example 7] | 0.01 µM | 1 µM | – | –
21 | CCCCc1nc2c(N)nc3ccccc3c2n1CCOCCNS(=O)(=O)c1ccc(F)cc1F [Example 17] | 1 µM | 10 µM | – | –
22 | CCCCc1nc2c(N)nc3ccccc3c2n1CCOCCNS(=O)(=O)c1cccc(C#N)c1 [Example 15] | 10 µM | 10 µM | – | –

Row | SMILES | minimal effective concentration (interferon (α)) | minimal effective concentration [1] | Lowest Effective Concentration (μM) Interferon (interferon (α)) | Lowest Effective Concentration (μM) Tumor Necrosis Factor [1]
23 | CCC(COCCC1CCN(S(=O)(=O)N(C)C)CC1)n1cnc2c(N)nc3ccccc3c21 (centres unmarked) [Example 28] | 0.1 µM | 1 µM | – | –
24 | CCC(COCCC1CCN(S(=O)(=O)c2cccc(F)c2)CC1)n1cnc2c(N)nc3ccccc3c21 (centres unmarked) [Example 32] | 1 µM | 1 µM | – | –
25 | CCCCc1nc2c(N)nc3ccccc3c2n1CCOCCNS(=O)(=O)CC [Example 6] | 0.001 µM | 1 µM | – | –
26 | Nc1nc2ccccc2c2c1ncn2CCOCCNS(=O)(=O)c1cccc(F)c1 [Example 42] | 10 µM | 1 µM | – | –
27 | CCC(COCCC1CCN(S(=O)(=O)c2cccc(C#N)c2)CC1)n1cnc2c(N)nc3ccccc3c21 (centres unmarked) [Example 33] | 1 µM | 1 µM | – | –
28 | CCC(COCCC1CCN(S(=O)(=O)c2ccc(OC)cc2)CC1)n1cnc2c(N)nc3ccccc3c21 (centres unmarked) [Example 34] | 1 µM | 1 µM | – | –
29 | CCC(COCCC1CCN(S(=O)(=O)C(C)C)CC1)n1cnc2c(N)nc3ccccc3c21 (centres unmarked) [Example 27] | 0.1 µM | 1 µM | – | –
30 | CCCCc1nc2c(N)nc3ccccc3c2n1CCOCCNS(=O)(=O)c1ccccc1 [Example 10] | 1 µM | 10 µM | – | –
31 | CCC(COCCC1CCN(S(=O)(=O)c2ccc(OC(F)(F)F)cc2)CC1)n1cnc2c(N)nc3ccccc3c21 (centres unmarked) [Example 38] | – | – | * | *
32 | CCCCc1nc2c(N)nc3ccccc3c2n1CCOCCNS(=O)(=O)c1ccc(-c2ccccc2)cc1 [Example 22] | 0.0001 µM | 10 µM | – | –
33 | CCCCc1nc2c(N)nc3ccccc3c2n1CCOCCNS(=O)(=O)c1ccc(C(F)(F)F)cc1 [Example 21] | 10 µM | 10 µM | – | –
34 | CCCCc1nc2c(N)nc3ccccc3c2n1CCOCCNS(=O)(=O)CCCC [Example 9] | 0.1 µM | 1 µM | – | –
35 | Nc1nc2ccccc2c2c1ncn2CCOCCNS(=O)(=O)c1ccc(-c2ccccc2)cc1 [Example 47] | – | – | * | *
36 | Nc1nc2ccccc2c2c1ncn2CCOCCNS(=O)(=O)c1ccc(F)cc1F [Example 44] | 1 µM | 10 µM | – | –
37 | Nc1nc2ccccc2c2c1ncn2CCOCCNS(=O)(=O)c1ccc(OC(F)(F)F)cc1 [Example 49] | – | 10 µM | * | –
38 | CCC(COCCC1CCN(S(=O)(=O)c2ccc(S(C)(=O)=O)cc2)CC1)n1cnc2c(N)nc3ccccc3c21 (centres unmarked) [Example 37] | 0.1 µM | 1 µM | – | –
39 | Nc1nc2ccccc2c2c1ncn2CCOCCNS(=O)(=O)c1ccc2ccccc2c1 [Example 45] | – | – | * | *
40 | Nc1nc2ccccc2c2c1ncn2CCOCCNS(=O)(=O)c1ccccc1 [Example 41] | 10 µM | 1 µM | – | –
41 | Cc1nc2c(N)nc3ccccc3c2n1CCCOCCOCCCNS(=O)(=O)c1cccc2c(N(C)C)cccc12 [Example 50, N-[10-(4-amino-2-methyl-1H-imidazo[4,5-c]quinolin-1-yl)-4,7-dioxadecyl]-5-dimethylaminonaphthalene-1-sulfonamide] | 1.11 µM | – | – | *
42 | CCCCc1nc2c(N)nc3ccccc3c2n1CCOCCNS(=O)(=O)c1ccc(OC(F)(F)F)cc1 [Example 24] | 0.0001 µM | 10 µM | – | –
43 | CCC(COCCC1CCN(S(=O)(=O)c2cccs2)CC1)n1cnc2c(N)nc3ccccc3c21 (centres unmarked) [Example 31] | 1 µM | 10 µM | – | –
